Assay results published in PubChem BioAssay AID2060627 (Molecular Pharmacology Branch, DTP, NCI, 2025).

Test system: 156681-154-R-J1-PDC complex spheroid viability
Experiment: Anticancer human tumor 156681-154-R-J1-PDC patient-derived melanoma cell line growth inhibition [CLK]
Conditions: for IC50: curve of first compound; for viability, T/C: stronger effect = lower value
Description: A high-throughput screen of multi-cell type tumor spheroids was designed to identify active combinations of […] and targeted small molecules. Complex spheroids include a stromal component modeled by human endothelial cells (HUVEC) and fibroblasts modeled by human mesenchymal stem cells (MSCs). The concentration ranges selected for each drug and investigational agent were based upon clinically achievable concentrations if the clinical Cmax of the agent was known.
Compounds. The drugs and investigational agents: cirtuvivint (SM08502; NSC835563), CC-671 (NSC850746), vemurafenib (NSC761431), tapotoclax (NSC804041), sotorasib (NSC818433), adagrasib (NSC831453), MRTX-1133 (NSC836407), BAY2416964 (NSC825713), copanlisib (NSC816437), inavolisib (NSC800729), abemaciclib (NSC768073), osimertinib (NSC779217), entinostat (NSC756642), eltanexor (KPT-8602, NSC794443), venetoclax (NSC766270), ceralasertib (NSC777638), bortezomib (NSC756655), olaparib (NSC753686), talazoparib (NSC767125), alisertib (NSC759677), peposertib (NSC802822), gemcitabine (NSC613327), 5-fluorouracil (NSC19893), SN-38 (NSC673596), oxaliplatin (NSC266046), paclitaxel (NSC125973), and doxorubicin (NSC123127), were obtained from the National Cancer Institute (NCI) Developmental Therapeutics Program Chemical Repository. The FDA-approved anticancer drug set is available from the Developmental Therapeutics Program at https://dtp.cancer.gov/organization/dscb/obtaining/available plates.htm. […] The stock solutions were prepared in dimethyl sulfoxide (DMSO, Sigma-Aldrich, St. Louis, MO, cat. D2650), except for the platinum complexes which were prepared in saline (Quality Biological, Gaithersburg, MD, cat. 114-055-101), at 800-fold the tested concentration and stored at -70 degrees C prior to their use. All drugs and investigational agents were tested over a range starting from a high concentration at or near the clinical Cmax and decreasing in half-log increments. If the clinical Cmax for an agent had not been determined, the highest concentration tested was 10 microM.
Cell Culture. All cells were maintained in an incubator at 37 degrees C and 5% CO2 with 95% humidity. The PDC lines were cultured according to standard operating procedures established by the NCI PDMR. Briefly, all PDCs were thawed and cultured in Matrigel-coated flasks prepared with a working solution of 1X Ham's F-12 nutrient mix, without supplementation (Invitrogen, Waltham, MA, cat. 11765054), 100 U/mL penicillin-streptomycin (Invitrogen, cat. 15140122), and 2.5% Matrigel (Corning Inc., Corning, NY, cat. 354248) for the first three passages. The 947758-054-R-J2-PDC line was cultured in 6B/Colon 1A media, which includes advanced DMEM/F-12 (Thermo Fisher Scientific, cat. 12634028), 10 mM HEPES (Thermo Fisher Scientific, cat. 15630080), 1X GlutaMAX supplement (Thermo Fisher Scientific, cat. 35050061), 0.1 mg/mL primocin (InvivoGen, cat. ant-pm-2), 10% defined fetal bovine serum, heat inactivated (HyClone Laboratories Inc., cat. SH30070.03HI), 1.25 mM N-Acetyl-L-cysteine (Sigma-Aldrich, cat. A9165), 10 mM nicotinamide (Sigma-Aldrich, cat. N0636), 1X B-27 supplement (Thermo Fisher Scientific, cat. 17504044), 1X N-2 supplement (Thermo Fisher Scientific, cat. 17502048), and 10 microM Y-27632 dihydrochloride (Tocris Bioscience, cat. 1254). The 876862-298-R-J1-PDC was cultured in 6E media, which includes all 6B/Colon 1A media components plus 50% L-WRN conditioned media (ATCC, cat. CRL-3276), 50 ng/mL recombinant human EGF recombinant protein (hEGF; Thermo Fisher Scientific, cat. PHG0311), 10 ng/mL recombinant human fibroblast growth factor 10 (hGFG-10; PeproTech, cat. 100-26), 1 ng/mL recombinant human fibroblast growth factor 2 (hFGF-2; PeproTech, cat. 100-18B), and 1 µM prostaglandin E2 (PGE2; Tocris, cat. 2296). The 227483-062-R1-J1-PDC line was cultured in Panc media, containing all 6E components except hFGF-2, with the addition of 500 nM SB-431542 (Selleckchem, cat. S1067) and 10 nM gastrin (Tocris, cat. 3006). […]
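Further: spheroids exposed to the agents for seven days.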
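Wherever viability, T/C is given: 100% = DMSO vehicle control viability.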

## COC1C=CCC(C)C(C)S(=O)(=O)NC(=O)c2ccc3c(c2)N(CC2CCC21)CC1(CCCc2cc(Cl)ccc21)CO3 (configuration not stated) + CN1CCN(c2cc(C(=O)Nc3cc4cc(-c5cnn(C)c5)ccc4cn3)ccn2)CC1
Second compound 0.0316 µM
  IC50: 1600 nM
Second compound 0.1 µM
  IC50: 1170 nM
Second compound 0.316 µM
  IC50: < 31.6 nM
Second compound 1 µM
  IC50: < 31.6 nM
Second compound 3.16 µM
  IC50: < 31.6 nM
Second compound 10 µM
  IC50: < 31.6 nM
Second compound 0.0316 µM, first compound 0.0316 µM
  viability, T/C: 111%
Second compound 0.0316 µM, first compound 0.1 µM
  viability, T/C: 83.4%
Second compound 0.0316 µM, first compound 0.316 µM
  viability, T/C: 86.8%
Second compound 0.0316 µM, first compound 1 µM
  viability, T/C: 75.4%
Second compound 0.0316 µM, first compound 3.16 µM
  viability, T/C: 13.8%
Second compound 0.0316 µM, first compound 10 µM
  viability, T/C: 1.82%
Second compound 0.1 µM, first compound 0.0316 µM
  viability, T/C: 90.1%
Second compound 0.1 µM, first compound 0.1 µM
  viability, T/C: 97.8%
Second compound 0.1 µM, first compound 0.316 µM
  viability, T/C: 81.2%
Second compound 0.1 µM, first compound 1 µM
  viability, T/C: 58%
Second compound 0.1 µM, first compound 3.16 µM
  viability, T/C: 11.7%
Second compound 0.1 µM, first compound 10 µM
  viability, T/C: 2.71%
Second compound 0.316 µM, first compound 0.0316 µM
  viability, T/C: 27.3%
Second compound 0.316 µM, first compound 0.1 µM
  viability, T/C: 17.2%
Second compound 0.316 µM, first compound 0.316 µM
  viability, T/C: 16.7%
Second compound 0.316 µM, first compound 1 µM
  viability, T/C: 10.2%
Second compound 0.316 µM, first compound 3.16 µM
  viability, T/C: 4.46%
Second compound 0.316 µM, first compound 10 µM
  viability, T/C: 1.8%
Second compound 1 µM, first compound 0.0316 µM
  viability, T/C: 0.2%
Second compound 1 µM, first compound 0.1 µM
  viability, T/C: 0.34%
Second compound 1 µM, first compound 0.316 µM
  viability, T/C: 0.18%
Second compound 1 µM, first compound 1 µM
  viability, T/C: 0.14%
Second compound 1 µM, first compound 3.16 µM
  viability, T/C: 0.12%
Second compound 1 µM, first compound 10 µM
  viability, T/C: 2.25%
Second compound 3.16 µM, first compound 0.0316 µM
  viability, T/C: 0.14%
Second compound 3.16 µM, first compound 0.1 µM
  viability, T/C: 2.92%
Second compound 3.16 µM, first compound 0.316 µM
  viability, T/C: 1.77%
Second compound 3.16 µM, first compound 1 µM
  viability, T/C: 0.13%
Second compound 3.16 µM, first compound 3.16 µM
  viability, T/C: 2.33%
Second compound 3.16 µM, first compound 10 µM
  viability, T/C: 1.15%
Second compound 10 µM, first compound 0.0316 µM
  viability, T/C: 0.16%
Second compound 10 µM, first compound 0.1 µM
  viability, T/C: 0.14%
Second compound 10 µM, first compound 0.316 µM
  viability, T/C: 0.26%
Second compound 10 µM, first compound 1 µM
  viability, T/C: 0.22%
Second compound 10 µM, first compound 3.16 µM
  viability, T/C: 0.29%
Second compound 10 µM, first compound 10 µM
  viability, T/C: 0.25%
